Assay results: patent US20110224297A1, “Methods of administering prostratin and structural analogs thereof” (priority 2008, published 2011)

Columns and labels:
[1] = tested on: resting CD4+ T cells derived from HIV positive patients; experiment: Induction of HIV-1 expression in resting CD4+ T cells from HIV positive patients on HAART (p24, co-culture); type: cell-based, human; details: VPA at 1 mM added to cultures treated with prostratin
Description: The ability of prostratin to induce HIV-1 expression in cultures of highly purified resting CD4+ T cells derived from six HIV positive patients on HAART therapy with undetectable plasma viral load (<50 copies/ml) and CD4 cell counts above 350 cells/mm^3 was evaluated. PBMCs were separated using Ficol Hypaque gradient and resting CD4+ T cells were purified using commercially available CD4+ T cell isolation kit (Miltenyi Biotec) Immediately after purification, resting CD4+ T cells were treated for 3 days with two antiretrovirals to which the patient had not previously been exposed. Antiretrovirals were used at concentrations 10 times the 50% inhibitory concentration for wild-type HIV-1 to ensure elimination of any actively replicating virus. Three days after in vitro incubation with antiretrovirals, cells were washed and incubated for 5 h, 24 h, or 48 h with prostratin (50-500 ng/ml), in the absence or presence of 1 mM valproic acid (sodium salt, SIGMA), 10 μg/ml PHA (SIGMA), 50 U IL-2/ml (AIDS depository of reagents, NIH), or in the absence of drugs. At the end of each incubation period, cells were co-cultured with CD8-depleted PBMCs from healthy donors. P24 was measured at days 0, 4, 7, 14, 21, 28, 35 and 42 days.

[2] = In vitro metabolism in rat primary hepatocytes; type: in vitro ADME
Description: (§1) ^3H-Prostratin was incubated in hepatocyte preparations with 0.75×10^6 hepatocytes/ml for 0, 30, 60, and 120 minutes. Hepatocytes were suspended in William's E medium and incubated with 1 μM or 4 μM ^3H-Prostratin at 37° C. in an atmosphere of 4.7-4.8% CO2. Hepatocyte incubations were terminated by addition of acetonitrile. Incubations were profiled for ^3H-Prostratin and metabolites by high performance liquid chromatography using a radioactivity detector.
(§2) Metabolites were subsequently analyzed by liquid chromatography/tandem mass spectrometry (LC/MS/MS) for putative identification. Seven predominant metabolites, identified as M1 through M6 according to their chromatographic order of elution, were detected among both genders of the three species, including two co-eluting metabolites labeled as M3A or M3B. Among the seven metabolites, five were putatively identified by LC/MS/MS, while structures could not be proposed for M2 and M3B.

[3] = In vitro metabolism in monkey primary hepatocytes; type: in vitro ADME; details: monkey hepatocytes of both genders
Description: as §1, §2

[4] = In vitro metabolism in human primary hepatocytes; type: in vitro ADME
Description: as §1, §2

[5] = Extent of metabolism by hepatocytes, rank order across species and genders; type: in vitro ADME, rat, monkey, human; details: 1 μM and 4 μM; up to 120 minutes
Description: as §1, §2

[6] = Quantitative whole body autoradiography of rats following oral administration; type: in vivo, Long Evans rats
Description: The absorption and distribution of ^3H-Prostratin were studied in male and female rats following a single oral administration at 0.2 mg/kg. Four Long Evans male and four Long Evans female rats, after an overnight fast, each received a single oral administration of ^3H-Prostratin as a solution in saline containing <1% of ethanol at a target dose of 0.2 mg/kg. For both males and females, one animal per time point per sex was sacrificed at 1, 4, 8, and 24 hours postdose and carcasses were prepared for whole-body autoradiography (WBA). Blood, plasma, and cellular fraction were analyzed by using liquid scintillation counting (LSC).

[7] = female rats, single oral 0.2 mg/kg
[8] = male rats, single oral 0.2 mg/kg

SMILES | enhancement of HIV-1 replication beyond the prostratin effect [1] | number of metabolites detected ([2]; female rat hepatocytes) | number of metabolites detected ([2]; male rat hepatocytes) | gender difference in metabolism ([2]; male rat versus female rat hepatocytes) | number of metabolites produced [3] | number of metabolites produced ([4]; both genders of human hepatocytes) | extent of metabolism in human compared with male monkeys ([4]; human hepatocytes) | unique human metabolites ([4]; human hepatocytes) | extent of metabolism by hepatocytes, rank order [5] | maximum blood concentration of radioactivity [6, 7] | maximum plasma concentration of radioactivity [6, 7] | time of maximum blood and plasma concentrations of radioactivity [6, 7] | gender-related difference in tissue distribution of radioactivity ([6]; female versus male rats) | tissue distribution of radioactivity ([6]; male and female rats, single oral 0.2 mg/kg) | maximum blood concentration of radioactivity [6, 8] | maximum plasma concentration of radioactivity [6, 8] | time of maximum blood concentration of radioactivity [6, 8] | time of maximum plasma concentration of radioactivity [6, 8]
CCCC(CCC)C(=O)O [VPA, valproic acid, reference compound] | did not significantly enhance |  |  |  |  |  |  |  |  |  |  |  |  |  |  |  |  | 
CC(=O)O[C@@]12C[C@@H](C)[C@@]3(O)[C@@H](C=C(CO)C[C@]4(O)C(=O)C(C)=C[C@@H]34)[C@@H]1C2(C)C [^3H-Prostratin] |  | two | Six | more rapid metabolism | five | Five | considerably lower | no unique human metabolites | male monkey>male rat>>female monkey≈male human≈female human>female rat | 59.7 ng equivalents ^3H-Prostratin/g | 63.7 ng equivalents ^3H-Prostratin/g | 1 hour postdose | distributed more widely in female tissues than male tissues | Most of the radioactivity was found in the gastrointestinal (GI) tract | 30.5 ng equivalents ^3H-Prostratin/g | 53.5 ng equivalents ^3H-Prostratin/g | 1 hours postdose | 4 hours postdose
